Results on three molecules are retold here after article PMC6100415, “Hepatic Metabolism of Sakuranetin and Its Modulating Effects on Cytochrome P450s and UDP-Glucuronosyltransferases” (Molecules : A Journal of Synthetic Chemistry and Natural …, 2018).

The structures appear in SMILES notation. Where two headings read alike, the source gives them in different places.

The target in one series is T1, CYP1A2 (Homo sapiens, UniProt P05177).
T1 sequence (P05177 1-516): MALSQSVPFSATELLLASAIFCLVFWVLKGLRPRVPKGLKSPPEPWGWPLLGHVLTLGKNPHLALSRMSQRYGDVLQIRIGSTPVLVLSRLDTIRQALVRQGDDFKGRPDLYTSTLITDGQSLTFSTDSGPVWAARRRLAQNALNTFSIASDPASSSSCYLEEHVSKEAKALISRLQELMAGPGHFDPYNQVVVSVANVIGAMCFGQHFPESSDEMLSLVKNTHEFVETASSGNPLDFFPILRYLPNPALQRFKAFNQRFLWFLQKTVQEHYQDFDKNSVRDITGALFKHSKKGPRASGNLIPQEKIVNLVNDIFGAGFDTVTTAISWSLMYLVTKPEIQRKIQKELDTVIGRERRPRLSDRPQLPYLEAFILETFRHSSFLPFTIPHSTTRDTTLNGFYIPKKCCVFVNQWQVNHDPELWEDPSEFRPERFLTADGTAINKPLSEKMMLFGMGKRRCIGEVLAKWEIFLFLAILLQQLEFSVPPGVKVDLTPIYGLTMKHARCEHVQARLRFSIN
The series can be described thus: CYP inhibition in human liver microsomes, phenacetin O-deethylation (PCOD). In kind it is in vitro ADME. Particulars: pH 7.4, probe phenacetin (O-deethylation, PCOD). The text has this:
(§1) The DAD was set at 280 nm.
(Liver microsomes are a subcellular fraction often used to study metabolism.)

Series [1] in a line: UDPGA-dependent metabolic stability in human liver microsomes. Particulars: for half-life at 100 µM / CLint scaled at 100 µM: human, pH 7.4, human liver microsomes; for CLint scaled at 100 µM: read-out: CLint, hepatic. In kind it is in vitro ADME. On the procedure: (§2) Metabolic stability was measured by monitoring the amount of parent compound that remained in an incubation mixture at designated incubation time points. For the phase I metabolism study, SKN (100 μM) was incubated with liver microsomes (1 mg/mL, rat, mouse, and dog; and 0.5 mg/mL, human), and an NADPH-generation cocktail consisting of nicotinamide adenine dinucleotide phosphate (NADP^+, 1 mM), glucose-6-phosphate (5 mM), glucose-6-phosphate dehydrogenase (1 unit/mL), and MgCl2 (10 mM) in potassium phosphate buffer (0.1 M, pH 7.4) in a total volume of 1 mL. To study phase II glucuronide conjugative metabolism, uridine 5′-diphosphoglucuronic acid (UDPGA) (2 mM) was added as a cofactor. The mixture was incubated in a shaking water bath, and the enzyme reaction was initiated by the addition of NADP^+, UDPGA, or both. Aliquots (100 μL) were removed at 0, 5, 15, 30, 45, and 60 min, and the reaction was terminated by adding two volumes of ice-cold methanol. […] The half-life of SKN was obtained by plotting the remaining amount of SKN against time using Prism 3.0 software (GraphPad, La Jolla, CA, USA). Hepatic intrinsic clearance (CLint, hepatic) was calculated using the following formula [20]:CLint, hepatic = (0.693/t1/2) × (g liver weight/kg body weight) × (mL incubation/mg of microsomal protein) × (mg microsomal protein concentration/g of liver)
as §1

Series [2] concerns the target T2, CYP2C9 (Homo sapiens, UniProt P11712). The series can be described thus: CYP inhibition in human liver microsomes, diclofenac 4′-hydroxylation (DCHY). Particulars: CYP2C9, DCHY, SKN 10 μM, 15 min pre-incubation.
Procedure: (§3) The formation of a metabolite from a CYP isozyme-specific phenotyping reaction (Table 4) was monitored. Each substrate (200 μM), along with SKN (10 μM), was incubated with human liver microsomes (0.5 mg/mL) and an NADPH-generating system in 0.1 M potassium phosphate buffer (pH 7.4) at 37 °C for 60 min in a total volume of 200 μL in a shaking water bath. The metabolic reaction was initiated by adding NADP^+ (1 mM) and stopped by adding 10 μL of trichloroacetic acid. In some experiments, the microsomes were pre-incubated with SKN for 15 min prior to the addition of the cofactor, in order to determine the time-dependent inhibitory effect. […] In contrast, co-incubation refers to experiments in which microsomes and cofactors were incubated in the presence of SKN. After centrifugation of incubation samples at 12,000× g for 15 min at 4 °C, the supernatant (20 μL) was injected into an HPLC-DAD system to analyze the metabolites formation (Supplementary Materials).
(§4) The DAD was set at 248 nm for phenacetin O-deethylation (PCOD), 298 nm for bupropion hydroxylation (BPHY), 276 nm for diclofenac 4′-hydroxylation (DCHY), 230 nm for tolbutamide 6-hydroxylation (TOLHY), 280 nm for dextromethorphan O-demethylation (DEXOD), and 250 nm for testosterone 6β-hydroxylation (TSTHY) and testosterone β-D-glucuronidation (TSTG).
A short description of series [3]: UDPGA-dependent metabolic stability in rat liver microsomes. In kind it is in vitro ADME. The note with it: for CLint scaled at 100 µM: read-out: CLint, hepatic; for half-life at 100 µM: rat, pH 7.4, rat liver microsomes. On the procedure:
as §2, §1

In series [4] the test system is hCAR-mediated CYP2B6 promoter. As to the kind of experiment: CAR-mediated CYP2B6 promoter luciferase assay in HepG2 cells. The note with it: pcDNA3-CAR-transfected HepG2 cells, 24 h; CITCO 500 nM. Type of series: cell-based, human. On the procedure: HepG2 cells (American Tissue Culture Collection, Manassas, VA, USA) were maintained in Dulbecco’s modified Eagle’s essential medium (DMEM), containing 10% fetal bovine serum, 1% nonessential amino acids, 1% GlutaMAX®, and 1% antibiotics/antimycotics at 37 °C in a 5% CO2 atmosphere. The expression plasmid encoding the human constitutive androstane receptor (hCAR; pcDNA3-CAR) and the pGL3-CYP2B6 luciferase construct were kindly provided by Dr. Hongbing Wang (University of Maryland, College Park, MD, USA). The plasmid encoding the human pregnane X receptor (hPXR; pcDNA3-PXR) and the pGL3-CYP3A4 luciferase construct were obtained from Dr. Masahiko Negishi at the National Institutes of Health (Bethesda, MD, USA). Cells were seeded at a density of 1.5 × 10^5 cells/well into a 24-well plate. The next day, the cells were transfected with 0.25 μg of either pcDNA3-CAR or pcDNA3-PXR and 0.25 μg of a promoter luciferase plasmid (either pGL3-CYP2B6 or pGL3-CYP3A4) using Lipofectamine 2000 (Invitrogen, Carlsbad, CA, USA) according to the manufacturer’s instructions. […] The cells were harvested and luciferase activity was measured as described previously.

The subject of series [5] is CYP isozymes (all isozyme-specific reactions). As to the kind of experiment: CYP inhibition in human liver microsomes, all isozyme-specific reactions. The note with it: pH 7.4, SKN 10 μM, read-out: inhibitory effect on the formation of any CYP isozyme-specific metabolites. In kind it is in vitro ADME.
Excerpt: as §1

For series [6], the target named is T2, CYP2C9. As to the kind of experiment: in vitro. The note with it: human liver microsomes, pH 7.4, probe tolbutamide (6-hydroxylation, TOLHY), 200 µM.
Procedure: as §3, §4

T2 sequence (P11712 whole entry): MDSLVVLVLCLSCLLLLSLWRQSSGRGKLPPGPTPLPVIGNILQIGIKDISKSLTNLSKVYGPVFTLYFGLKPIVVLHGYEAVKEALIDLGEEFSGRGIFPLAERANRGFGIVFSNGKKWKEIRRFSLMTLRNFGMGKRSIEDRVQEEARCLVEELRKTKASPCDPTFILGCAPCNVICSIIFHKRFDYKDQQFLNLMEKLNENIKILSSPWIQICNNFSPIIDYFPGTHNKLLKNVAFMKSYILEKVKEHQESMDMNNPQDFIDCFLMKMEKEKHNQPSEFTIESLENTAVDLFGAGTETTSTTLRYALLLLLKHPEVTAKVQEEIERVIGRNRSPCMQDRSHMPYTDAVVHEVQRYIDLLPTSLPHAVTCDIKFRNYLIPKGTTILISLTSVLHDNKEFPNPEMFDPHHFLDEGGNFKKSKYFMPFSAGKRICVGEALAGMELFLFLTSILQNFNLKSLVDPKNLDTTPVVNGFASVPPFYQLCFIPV

In the case of `COc1cc(O)c2c(c1)OC(c1ccc(O)cc1)CC2=O` (racemic) [SKN, (+/−) 7-O-methylnaringenin], the inhibition at 60 min, 10 µM at CYP1A2 (liver microsomes, 200 μM, SKN 10 μM, 15 min pre-incubation, read-out: % Inhibition in Pre-Incubation) was 1.5 ± 2.1%; on CYP1A2 (liver microsomes, 200 μM, SKN 10 μM, human liver microsomes, read-out: % Inhibition in Co-Incubation), 0.4 ± 0.5%; in series [5], ≤ 20%. The “Amount Remaining at 30 min (%)” value was determined as 54.9% in series [1] (NADPH +), 71.3% in series [1] (NADPH −), 0.0% in series [3] (NADPH +) and 17.1% in series [3] (NADPH −). The half-life at 100 µM in series [1] (NADPH +) is 25 min; in series [1] (NADPH −), > 30 min; in series [3] (NADPH +) it was 2.2 min; in series [3] (NADPH −), 4.4 min. The CLint scaled at 100 µM in series [1] (NADPH +) is 49.9 mL/min/kg; in series [1] (NADPH −) it was < 41.6 mL/min/kg; in series [3] (pH 7.4, NADPH +), 557 mL/min/kg; in series [3] (pH 7.4, NADPH −) it was 287 mL/min/kg. At CYP2C9 [2], the “% Inhibition in Pre-Incubation” value turned out to be 8.7 ± 1.4%. Further, in series [4], the “CYP2B6 luciferase activity increase” value is recorded as “not affected”.

As for `O=C1C[C@@H](c2ccc(O)cc2)Oc2cc(O)cc(O)c21` [Naringenin], the inhibition at 60 min, 10 µM at CYP2C9 [6] was found to be 12 ± 0.7%.

Take `O=C1C[C@@H](c2ccc(O)c(O)c2)Oc2cc(O)cc(O)c21` [Eriodictyol, 3′-hydroxynaringenin]: the inhibition at 60 min, 10 µM on CYP2C9 [6] was 7.7 ± 0.4%; at CYP1A2 (human liver microsomes, 200 µM, inhibitor 10 M [sic], human liver microsomes 0.5 mg/mL, read-out: Inhibition (%)), 15.9 ± 1.8%.

The half-life is the time in which the quantity being followed falls by half.
